Numbers after ± are expanded uncertainties.

One data set is described as follows: activity coefficient (dimensionless); of the first substance listed, at infinite dilution; xn = mol fraction of the nth substance listed. Conditions: 298 K; 101 kPa; Liquid; Chromatography; x1 = 0.
As for `C1=CC=CCC=C1` [1,3,5-cycloheptatriene] + C[S+](C)[O-], the activity coefficient came out at 5.7 ± 1.2.
`C=CCCC=C` [1,5-hexadiene] + CCCCCCCCCCCCCCCC: the activity coefficient was 0.8 ± 0.16.
Turning to `C=CCCC=C` [1,5-hexadiene] + C[S+](C)[O-], the activity coefficient came out at 11.6 ± 2.4.
Still for that read-out and setting: the value for `Cc1ccc(C(C)C)cc1` [1-(1-methylethyl)-4-methylbenzene] + C[S+](C)[O-] was 15.1 ± 3.1.
For `C#CCCCCC` [1-heptyne] + C[S+](C)[O-], the activity coefficient came to 6.9 ± 1.4.
As to `C#CCCCC` [1-hexyne] + C[S+](C)[O-], the activity coefficient was determined as 4.1 ± 0.8.
In the case of `C#CCCCCCC` [1-octyne] + C[S+](C)[O-], the activity coefficient was 10.2 ± 2.1.
Still for that read-out and setting: the value for `C=CC1CC=CCC1` (configuration not stated) [4-ethenylcyclohexene] + C[S+](C)[O-] was 20.7 ± 4.2.
Same read-out and setting: the value for `ClC(Cl)(Cl)Br` [bromotrichloromethane] + C[S+](C)[O-] was 2.1 ± 0.4; that for `C1=CCCCC1` [cyclohexene] + C[S+](C)[O-] was 14.9 ± 3.
In the case of `C1CCCCCCC1` [cyclooctane] + C[S+](C)[O-], the activity coefficient stood at 63.3 ± 13.
Still for that read-out and setting: as for `C1=CCCC1` [cyclopentene] + C[S+](C)[O-], the figure is 7 ± 1.4; as for `CC1CCCCC1` [methylcyclohexane] + C[S+](C)[O-], 49.2 ± 10.
Still for that read-out and setting: as for `CC1CCCC1` [methylcyclopentane] + C[S+](C)[O-], the figure is 29.5 ± 6.
The same measure, in the same setting: the value for `ClC(Cl)=C(Cl)Cl` [tetrachloroethene] + C[S+](C)[O-] was 10.5 ± 2.1.

The data set is the same for the next values; noted with them: 298 K; Gas; Chromatography; x1 = 0.
With `C=CC1CC=CCC1` (configuration not stated) [4-ethenylcyclohexene] + CCCCCCCCCCCCCCCC, the activity coefficient worked out at 0.96 ± 0.19.
On the same count and under the same terms, as for `C1CCCCCCC1` [cyclooctane] + CCCCCCCCCCCCCCCC, the figure is 0.96 ± 0.19.
